Here are results for 50 compounds from PubChem BioAssay AID179 (DTP/NCI, 2004).

The EC50 is the concentration giving half of the maximal effect. Usually IC50 stands for the concentration needed to halve the response being measured. Read a high IC50 as weaker potency in that assay.

The test system of the test is CEM cells HIV-1 protection, formazan growth assay. Briefly: NCI AIDS Antiviral Assay. As to conditions: for IC50: measured here: growth of uninfected CEM cells. As to the method: The ability of compounds to protect human CEM cells from HIV-1 infection is measured as a screen for new compounds capable of inhibiting the HIV virus. Five concentrations of drug were tested on uninfected and infected cells and cell growth was measured using a soluble formazan assay. […] Compounds that provided at least 50% protection were retested. Compounds that provided at least 50% protection on retest were listed as moderately active. Compounds that reproducibly provided 100% protection were listed as confirmed active. […] Note that the inability to provide protection could be due to toxicity.

Active and inactive are the calls of the source.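 How the source made its calls: active means compounds giving half or more protection of infected cells from virus-caused growth loss, again on retest; inactive means the rest.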

For `N#CC(C(=O)/C(=N\NC(N)=O)C(C#N)c1ccc(Cl)cc1)c1ccc(Cl)cc1` (stereo not drawn), the EC50 is over 603 µM and the IC50 turned out to be 398 µM. With `CN(C)CNc1ncnc2onc(-c3ccccc3)c12`, the result was inactive.

Consider `NC(CCc1ncc(-c2ccccc2)s1)C(=O)O` (stereo not drawn), for which the result was inactive. On to `N#C/C(=C1\OC(=N)C(c2ccc(Cl)cc2Cl)C1=O)c1ccc(Cl)cc1Cl` (stereo not drawn), for which the outcome was inactive. On to `NCCS/C=C/C(=O)OCc1ccc(Br)cc1`, for which the EC50 was over 708 µM and the IC50 is 97.7 µM.

As for `COc1ccc(N=C/C=C/Nc2ccc(OC)cc2)cc1`, the EC50 was over 200 µM and the IC50 was 7.41 µM.

For `O=C(Nc1noc(-c2ccccc2)n1)c1ccccc1CNc1noc(-c2ccccc2)n1`, the EC50 is over 200 µM and the IC50 is over 200 µM.

Turning to `CCOC(=O)C1COc2cc(-c3cc(=O)c4ccccc4o3)ccc2O1` (stereo not drawn), the result was inactive. As to `C=CCN(c1cc(OC)c2[nH]cc(C)c2c1[N+](=O)[O-])S(C)(=O)=O`, the EC50 was 97.7 µM and the IC50 is over 100 µM.

As to `C/C(=N\NC(N)=S)c1sc(-n2nc(-c3ccccc3)cc2-c2ccccc2)nc1C`, the EC50 was over 16.6 µM and the IC50 is over 16.6 µM. Consider `Cc1noc(NS(=O)(=O)c2ccc(NC(=S)/N=C/C(C(=O)c3ccccc3)=C(\O)c3ccccc3)cc2)c1C`, for which the EC50 was over 200 µM and the IC50 was determined as 120 µM.

`CSCCCNC(=O)c1csc([C@@H](CSC)NC(=O)CCNC(=O)[C@@H](NC(=O)OCC(Br)(Br)Br)C(C)O)n1` (stereo partly drawn): the EC50 was over 166 µM and the IC50 was over 166 µM. As to `CCCCCOC(=O)c1ccc(NC(=O)CN(CC)CC)cc1`, the EC50 was over 200 µM and the IC50 came to 55 µM. In the case of `Cc1ccc2ccccc2c1CSc1ncnc2c1ncn2C1OC(CO)C(O)C1O` (stereo not drawn), the EC50 is over 200 µM and the IC50 came out at 24.5 µM. In the case of `Cc1cccc2c1CC(Cc1ccccc1C(=O)O)C2=O` (stereo not drawn), the EC50 was over 200 µM and the IC50 was over 200 µM. `CCCCCCCC(=O)c1c(O)c2ccccc2oc1=O`: the EC50 is over 200 µM and the IC50 worked out at 26.9 µM. In the same order, the values of `COC1CC(CC(C)=O)CN(C#N)CCc2c1[nH]c1ccccc21` (stereo not drawn) are over 132 µM and over 132 µM. Take `CC(NCCCCCCNC(C)C(=O)O)C(=O)O` (stereo not drawn): the EC50 was over 589 µM and the IC50 was over 589 µM. As for `COc1cccc(/C(CC(O)(C(F)(F)F)C(F)(F)F)=N\N(C)C)c1`, the EC50 is over 200 µM and the IC50 was over 200 µM. Take `Cc1ccc(NC(=O)CC2Sc3ccccc3NC2=O)cc1C` (stereo not drawn): the EC50 was over 6.17 µM and the IC50 is over 6.17 µM. Regarding `CN(C)CCn1c(=O)oc2cc(C(=O)CN3CCOCC3)ccc21`, the EC50 was over 200 µM and the IC50 is 102 µM. As for `CCOC(=O)c1c(N2CCOCC2)[nH]c(=O)c(C(c2c(O)c(C(=O)OCC)c(N3CCOCC3)[nH]c2=O)C(C)C)c1O`, the EC50 was over 200 µM and the IC50 was over 200 µM. For `CC(=O)Nc1ccc(NC(=O)CC(=O)Nc2ccc(NC(C)=O)cc2)cc1`, the EC50 is over 200 µM and the IC50 was over 200 µM.

Take `OCC1OC(n2cnc3cncnc32)C(O)C1O` (stereo not drawn): the outcome was inactive. For the compound `CC(=O)Oc1c(OC(C)C)cc(=O)n2ccsc12`, the EC50 was over 200 µM and the IC50 was 102 µM. For the compound `COC(=O)c1cc(C(=CCN[C@@H]2CC[C@@]3(C)[C@@H](CC[C@@H]4[C@@H]3CC[C@]3(C)[C@@H]([C@H](C)CCCC(C)C)CC[C@@H]43)C2)c2cc(Cl)c(OC)c(C(=O)OC)c2)cc(Cl)c1OC`, the EC50 was over 100 µM and the IC50 is over 100 µM. In the case of `CC(=O)/C(=C/n1ccc(=O)[nH]c1=S)C(=O)Nc1ccccc1C`, the EC50 was over 200 µM and the IC50 is over 200 µM. Take `Oc1ccc(N=C2N=c3c(c4ccccc4c4ccccc34)=N2)c2ccccc12`: the EC50 is over 200 µM and the IC50 came to 4.57 µM. As for `CC(N)S(=O)(=O)O` (stereo not drawn), the EC50 was over 200 µM and the IC50 is 158 µM. In the same order, the values of `O=C(CCC(=O)Nc1ccc(Cl)c(Cl)c1)CC(=O)c1ccc(F)cc1` are over 67.6 µM and over 67.6 µM. Turning to `O=C(CNc1nccs1)Nn1cnc2ccc(S(=O)(=O)Nc3nccs3)cc2c1=O`, the EC50 was over 200 µM and the IC50 was over 200 µM. With `COc1ccc(OC(C)=O)c2c1CCC=CC2=O`, the outcome was inactive.

As for `COc1cc(C)c(Br)c2c1C(=O)C(Br)(Br)CC2`, the EC50 was over 200 µM and the IC50 was found to be 0.309 µM. Turning to `O=C(Nc1ccccc1)C1CC=C2CCC3OC(=O)C1C23` (stereo not drawn), the EC50 was over 331 µM and the IC50 was over 331 µM.

As for `O=C1NC(=O)C(=Cc2ccc(Cl)cc2)C(=O)N1`, the EC50 was over 75.9 µM, the outcome was inactive and the concentration for half-maximal inhibition (IC50) is over 75.9 µM. Turning to `CCC1(O)C(=O)Nc2ccccc2C1=O` (stereo not drawn), the EC50 is over 200 µM and the IC50 was over 200 µM. Turning to `COC1=C(C)C(=O)C2C(C1=O)C(c1ccc(OC)c(OC)c1)[C@H]2C` (stereo partly drawn), the EC50 is over 151 µM and the IC50 is 135 µM. As for `O=[N+]([O-])c1ccc(O)c(/C=N/NC(=S)N2CCCCC2)c1`, the EC50 was over 200 µM and the IC50 came to 2.95 µM. Regarding `C[N+](C)(C)CC(=O)N/N=C(\CCC(=O)NCCc1ccccc1)CC(=O)c1ccccc1`, the result was inactive. `O=C(OC1C2OC(=O)c3cc(O)c(O)c(O)c3Oc3cc4c(c(O)c3O)-c3c(cc(O)c(O)c3O)C(=O)OCC3OC(O)C(OC(=O)c5cc(O)c(O)c(O)c5Oc5cc6c(c(O)c5O)-c5c(cc(O)c(O)c5O)C(=O)OC1C(COC6=O)OC2O)C(OC(=O)c1cc(O)c(O)c(O)c1)C3OC4=O)c1cc(O)c(O)c(O)c1` (stereo not drawn): the EC50 is over 69.2 µM and the IC50 turned out to be 34.7 µM. With `CN(C)c1ccc(CC2CCc3ccccc32)cc1` (stereo not drawn), the EC50 was over 20.9 µM and the IC50 was over 20.9 µM. Consider `CN1c2ccccc2C(=O)NC12CCN(Cc1ccccc1)CC2`, for which the EC50 is over 200 µM and the IC50 stood at 120 µM. On to `O=c1[nH]c(=O)n(C2CC(F)C(CO)O2)cc1C(OCC(F)(F)F)OCC(F)(F)F` (stereo not drawn), for which the EC50 was 37.2 µM and the IC50 was determined as 195 µM. On to `COc1ccc2c(c1)[n+]([O-])c(S(=O)(=O)c1ccc(C)cc1)c(N)[n+]2[O-]`, for which the result was inactive. For the compound `OCCN(CCO)c1ccc2c(C(F)(F)F)cc(C(F)(F)F)nc2n1`, the EC50 was over 200 µM and the IC50 amounted to 148 µM. For the compound `CCCCCCCCCCCO/N=C\c1c2c(O)c3c(O)c(C)c4c(c3c1O)C(=O)C(C)(O/C=C\C(OC)C(C)C(OC(C)=O)C(C)C(O)C(C)C(O)C(C)/C=C\C=C(\C)C(=O)N2)O4` (stereo not drawn), the EC50 was over 200 µM and the IC50 amounted to 3.02 µM.

Turning to `CCOC(=O)c1ccc(-n2[nH]c(=O)ccc2=O)cc1`, the EC50 is over 191 µM and the IC50 was over 191 µM. Regarding `COc1cc2c(cc1OC)C1OC(c3cc(OC)c(OC)cc3C1OC(C)=O)C2OC(C)=O` (stereo not drawn), the EC50 is over 50.1 µM and the IC50 was over 50.1 µM.

With `Cc1ccc(S(=O)(=O)NCCSCCNS(=O)(=O)c2ccc(C)cc2)cc1`, the EC50 is over 575 µM and the IC50 was over 575 µM. `CC(=O)Nc1cc(N=Nc2ccc(N=Nc3ccc(NC(=O)c4ccc(N)cc4)cc3C)cc2C)c(S(=O)(=O)O)cc1N=Nc1cccc(C(=O)O)c1`: the EC50 was 20.9 µM and the IC50 stood at 170 µM.
